Experimental data: EP4563149A1, “LURBINECTEDIN, ECUBECTEDIN AND A RELATED COMPOUND FOR USE IN THE TREATMENT OF SKIN CANCERS” (Pharma Mar, S.A., priority 2023, dated 2025)

Key:
MM074 = test: Cell viability assay (PrestoBlue), 72h; settings: Homo sapiens
Procedure: (§3) Cells were grown at 37°C in 5% CO2 (10% for Hermes 3A) and were regularly checked for mycoplasma contamination. […] Melanoma cell lines 501mel and SKmel28 were grown in RPMI w/o HEPES (Gibco, Invitrogen) supplemented with 10% FCS and gentamycin. Vemurafenib-resistant cells (501melVemuR and MM074VemuR) were additionally supplemented with 1.5 µM of vemurafenib. Melanoma IGR cell lines (IGR37 and IGR39) were grown in RPMI w/o HEPES (Gibco, Invitrogen) supplemented with 15% FCS and gentamycin.
(§4) To determine the IC50 (half maximal inhibitory concentration) of these cells to various inhibitors, cell viability assays were performed.
(§5) After 72h of treatment with different concentrations of the compounds, cells were treated with PrestoBlue reagent according to the manufacturer's instructions. The absorbance per well was measured with a Cellinsight CX5 microplate reader. Data were analyzed using Prism9 statistical software.

MM047 = test: Cell viability assay (PrestoBlue), 72h; settings: Homo sapiens
Procedure: (§6) Cells were grown at 37°C in 5% CO2 (10% for Hermes 3A) and were regularly checked for mycoplasma contamination. […] Melanoma IGR cell lines (IGR37 and IGR39) were grown in RPMI w/o HEPES (Gibco, Invitrogen) supplemented with 15% FCS and gentamycin.
as §4, §5

MM074^VemuR = test: Cell viability assay (PrestoBlue), 72h; settings: Homo sapiens
Procedure: (§7) Cells were grown at 37°C in 5% CO2 (10% for Hermes 3A) and were regularly checked for mycoplasma contamination. MM patient-derived short-term melanoma cultures (MM011, MM074, MM117, MM029, MM047, MM099) were grown in HAM-F10 (Gibco, Invitrogen) supplemented with 10% Fetal Calf Serum (FCS), 25 mM HEPES, 5.2 mM GLUTAMAX and penicillin-streptomycin. Melanoma cell lines 501mel and SKmel28 were grown in RPMI w/o HEPES (Gibco, Invitrogen) supplemented with 10% FCS and gentamycin. Vemurafenib-resistant cells (501melVemuR and MM074VemuR) were additionally supplemented with 1.5 µM of vemurafenib. Melanoma IGR cell lines (IGR37 and IGR39) were grown in RPMI w/o HEPES (Gibco, Invitrogen) supplemented with 15% FCS and gentamycin.
as §4, §5

501mel^VemuR = test: Cell viability assay (PrestoBlue), 72h; settings: Homo sapiens
Procedure: as §7, §4, §5

501mel = test: Cell viability assay (PrestoBlue), 72h; settings: Homo sapiens
Procedure: as §3, §4, §5

MM074 melanospheres [1] = test: Melanosphere viability (CellTiterGlo); format: cell-based, human; settings: 72h, doses equivalent to 5×IC50
Procedure: (§1) MM074 proliferative/differentiated cell line were seeded (5×10^4 cells) in ultra-low attachment hydrogel-layered 96 well plates in KO DMEM medium supplemented with 20% KSR, AANE, 2 mM Glutamax, Penicillin/Streptomycin and 100 uM Beta-mercaptoethanol. To allow for melanosphere formation, cells were left to grow for 4 days before drug treatment.
To analyze melanosphere viability after drug treatment, cells were treated with CellTiterGlo reagent (Promega) according to the manufacturer's instructions. Luminescence signals were measured with a Centro XS LB 960 microplate reader (Berthold).

MM099 = test: Cell viability assay (PrestoBlue), 72h; settings: Homo sapiens
Procedure: as §6, §4, §5

SKMEL-28 = test: Cell viability assay (PrestoBlue), 72h; settings: Homo sapiens, SK-MEL-28, 72 h
Procedure: as §3, §4, §5

MM029 = test: Cell viability assay (PrestoBlue), 72h; settings: Homo sapiens
Procedure: as §6, §4, §5

MM117 = test: Cell viability assay (PrestoBlue), 72h; settings: Homo sapiens
Procedure: as §3, §4, §5

Hermes3A = test: Cell viability assay (PrestoBlue), 72h; settings: for IC50: Homo sapiens, Melanocyte, 72 h
Procedure: as §6, §4, §5

IGR37 [2] = test: Cell viability assay (PrestoBlue), 72h; settings: Homo sapiens, IGR-37, 72 h
Procedure: as §3, §4, §5

MM011 = test: Cell viability assay (PrestoBlue), 72h; settings: Homo sapiens
Procedure: as §3, §4, §5

IGR37 [3] = test: Cell viability assay (PrestoBlue), 72h, last line of Table 2; settings: Homo sapiens, IGR-37, 72 h
Procedure: as §6, §4, §5

[4] = test system: RPB1 (RNA pol II elongation subunit); test: Immunoblotting of RPB1 in 501mel; format: cell-based, human; settings: 24h at 5×IC50
Procedure: Cells were washed once with cold PBS, rinsed with a cell scraper, pelleted and resuspended in LSDB 0.5M buffer (0.5M KCI, 50mM Tris HCl pH 7.9, 20% Glycerol, 1% NP40, 1mM DTT, PIC). Afterwards cells were fully disrupted with 3 cycles of heat shock in liquid nitrogen and 37°C water bath and centrifugated 15min at 14,000rpm to pellet cell debris. Ten micrograms of extract were loaded on SDS-PAGE before transfer to nitro-cellulose membranes and immunoblotting.

melanoma cells [5] = test: Cell proliferation by CellTrace Violet flow cytometry; format: cell-based, human; settings: IC50 concentrations, compared to DMSO
Procedure: (§2) After 48h of incubation, cells were rinsed and incubated with AnnexinV-APC (BD Biosciences). Cell proliferation and apoptosis were detected on a BD LSRFortessaTM Flow Cytometer. Data were analyzed with FlowJo software. To define slow proliferating or apoptotic cells: it was considered that slow proliferating cells represented the 30% of cells with the highest concentration of CellTrace Violet signal in the DMSO control. […] For apoptotic cells, it was considered the 20% of cells with the highest signal of AnnexinV-APC in the DMSO control.

MM074 melanospheres [6] = test: Melanosphere apoptosis (AnnexinV-APC / propidium iodide); format: cell-based, human; settings: 72h
Procedure: as §1
For apoptosis assays with 3D-grown melanoma cells, TrypLe Select 10x reagent (Gibco) was used to dissociate melanospheres to obtain single-cell suspensions. These cells were incubated with AnnexinV-APC (Biolegend) and Propidium Iodide (PI, Biolegend). With bivariant dot plots, it was distinguished between viable (AnnexinV-/PI-), early apoptotic (AnnexinV+/PI-), late apoptotic (AnnexinV+/PI+) and necrotic cells (AnnexinV-/PI+).

melanoma cells [7] = test: Apoptosis by flow cytometry (AnnexinV-APC); format: cell-based, human; settings: IC50 concentrations, Annexin V-APC
Procedure: as §2

melanoma cells 501mel = test: Cell cycle analysis by flow cytometry (PI); format: cell-based, human; settings: IC50 concentrations
Procedure: For cell cycle analysis, 2×10^6 cells were seeded in 6 well plates. […] After 2 washes with cold PBS, cells were incubated with RNAse A and PI for 1h in the dark, before being analyzed on a BD LSRFortessaTM Flow Cytometer. Data were analysed with FlowJo software.

all melanoma cells = test: Cell viability assay (PrestoBlue), summary over all melanoma cells; format: cell-based; settings: Homo sapiens, read-out: IC50 values
[8] = test system: melanoma cell cultures or cell lines; test: Clonogenic assay; format: cell-based, human; settings: 48h at IC50 concentrations, then 10 days without drug
Procedure: Based on the cell viability assays conducted above, the efficacy of lurbinectedin, PM14 or Compound IA on melanoma cell proliferation was investigated. Initially, a clonogenic assay was performed. Cells were drug-treated at IC50 concentrations during 48h before seeding 1×10^3 or 2×10^3 cells in 6-well plates without drug, wherein they grew for 10 days to allow for colony formation. Afterwards, cells were fixed for 10min with 4% formaldehyde solution, washed once with PBS and stained with Crystal Violet solution 0.2% for 15 min. The wells were finally washed twice with deionized water, air dried, scanned and analyzed with Fiji software to count the number of colonies.

With `CC(C)(C)c1nc(-c2cccc(NS(=O)(=O)c3c(F)cccc3F)c2F)c(-c2ccnc(N)n2)s1` [dabrafenib] the IC50 (MM074) was 4.68 nM, the IC50 (MM047) was greater than 50 nM and the IC50 (MM074^VemuR) was greater than 50 nM. For the same compound, the IC50 (501mel^VemuR) was greater than 50 nM, the IC50 (501mel) was greater than 50 nM and the “cell viability in 3D culture” value (MM074 melanospheres [1]) was “unable to reduce cell viability”. The IC50 (MM099) was greater than 50 nM, the IC50 (SKMEL-28) was 1 nM and the IC50 (MM029) was greater than 50 nM. The IC50 (MM117) was greater than 50 nM, the IC50 (Hermes3A) was greater than 50 nM and the IC50 (IGR37 [2]) was 25.3 nM. It also gave an IC50 (MM011) greater than 50 nM and an IC50 (IGR37 [3]) greater than 50 nM.

For `COc1ccc2[nH]c3c(c2c1)CCN[C@]31CS[C@@H]2c3c(OC(C)=O)c(C)c4c(c3[C@H](COC1=O)N1[C@@H]2[C@H]2c3c(cc(C)c(OC)c3O)C[C@@H]([C@@H]1O)N2C)OCO4` [lurbinectedin], the IC50 (MM074) was 1.06 nM, the IC50 (MM047) was 0.45 nM and the “RPB1 (RNA pol II elongation subunit) degradation” value [4] was “minimal”. The IC50 (MM074^VemuR) was 1.36 nM, the melanoma cell proliferation (melanoma cells [5]) was “significant inhibition” and the IC50 (501mel^VemuR) was 1.07 nM. The “late apoptotic cells positive for Annexin V and propidium iodide” value (MM074 melanospheres [6]) was “substantial population of late apoptotic cells”, the IC50 (501mel) was 0.37 nM and the apoptosis (melanoma cells [7]) was “induction of apoptosis”. The “cell viability in 3D culture” value (MM074 melanospheres [1]) was “significant cytotoxic effects”, the IC50 (MM099) was 0.73 nM and the cell cycle progression (melanoma cells 501mel) was “notable blockade”. It also gave an IC50 (SKMEL-28) of 1.17 nM, an IC50 (MM029) of 1.28 nM and an IC50 (MM117) of 0.3 nM. The “sensitivity of non-cancerous Hermes3A immortalized melanocytes compared with the melanoma cells” value (Hermes3A; Hermes3A versus melanoma cells) was “less sensitive”, the IC50 (Hermes3A) was 2.67 nM and the IC50 (IGR37 [2]) was 0.5 nM. For the same compound, the IC50 (MM011) was 0.47 nM, the IC50 (all melanoma cells) was 0.3 to 4.73 nM and the “colony formation (number of colonies)” value [8] was “significant impact”. For the same compound, the IC50 (IGR37 [3]) was 0.41 nM.

`CC(=O)Nc1cccc(-n2c(=O)n(C3CC3)c(=O)c3c(Nc4ccc(I)cc4F)n(C)c(=O)c(C)c32)c1` [trametinib] gave an IC50 (MM074) of 0.51 nM, an IC50 (MM047) greater than 50 nM and an IC50 (MM074^VemuR) of 4.65 nM. For the same compound, the IC50 (501mel^VemuR) was greater than 50 nM, the IC50 (501mel) was 3 nM and the IC50 (MM099) was greater than 50 nM. For the same compound, the IC50 (SKMEL-28) was 5.12 nM, the IC50 (MM029) was greater than 50 nM and the IC50 (MM117) was 10.2 nM. The IC50 (Hermes3A) was greater than 50 nM, the IC50 (IGR37 [2]) was 0.53 nM and the IC50 (MM011) was greater than 50 nM. It also gave an IC50 (IGR37 [3]) greater than 50 nM.

With `CCCS(=O)(=O)Nc1ccc(F)c(C(=O)c2c[nH]c3ncc(-c4ccc(Cl)cc4)cc23)c1F` [vemurafenib] the IC50 (MM074) was 225 nM, the IC50 (MM047) was greater than 10000 nM and the IC50 (MM074^VemuR) was greater than 10000 nM. It also gave an IC50 (501mel^VemuR) greater than 10000 nM, an IC50 (501mel) of 2440 nM and an IC50 (MM099) greater than 10000 nM. It also gave an IC50 (SKMEL-28) greater than 10000 nM, an IC50 (MM029) greater than 10000 nM and an IC50 (MM117) of 488 nM. The IC50 (Hermes3A) was greater than 10000 nM, the IC50 (IGR37 [2]) was 517 nM and the IC50 (MM011) was greater than 10000 nM. It also gave an IC50 (IGR37 [3]) greater than 10000 nM.
